Results: patent US20130253179A1, “Functionalization Processes and Reactants Used in Such Processes Using an Isatoic Anhydride or a Derivative Thereof, Biological Molecules Thus Treated and Kits” (priority 2010, published 2013)

Tested on: in vitro RNA transcripts (IVT)
Experiment: Functionalisation of in vitro RNA transcripts, Cy3 and RNA assay, DoL (Degree of Labelling)
Assay type: biochemical, human
Experimental: The in vitro transcripts are generated in the same way as described in example 8. In this example, we have used four concentrations of functionalisation molecule Cy3 IA Me (13) in order to determine the most appropriate concentration for detection of the most sensitive functionalised IVTs.
6 μg of in vitro transcripts are taken up in a total volume of 20 μL of a 10 mM solution of Zn(OAc)2 pH 6.5. The solution is incubated for 15 min at 70° C. in order to partially fragment the RNA until a majority of fragments are obtained which are of a size between 25 and 200 bases. After this incubation, the solution is immediately put into ice.
11 μL of the transcript solution is mixed with 4 μL of a 500 mM solution of NaHCO3 pH 8-8.5, and with 5 μL of a 120, 240, 360 or 480 mM solution of Cy3 IA Me (13) in DMSO, to obtain 30, 60, 90 or 120 mM solutions of functionalisation reagent, respectively. These solutions are incubated at 65° C. for one hour.
The excess of functionalisation reagent as well as that of the different salts are eliminated by isopropanol precipitation then by acetone precipitation. To do this, 6 μL of 3M sodium acetate (i.e. 30% by volume) and 14 μL of isopropanol (i.e. 70% by volume) are added to the functionalisation solution. Vortex stirring is performed and centrifuging is performed for 30 mins at 14,000 rpm (20,800 g) at 4° C. The supernatant is eliminated and then the pellet is rinsed with 50 μL of 70% ethanol. Centrifuging is carried out again for 15 mins at 14,000 rpm (20,800 g) at 4° C., and the supernatant is eliminated.
280 μL of water, 18 μL of 3M LiClO4 and 900 μL of acetone are added to the pellet. Vortex stirring is performed, centrifuging is performed and the supernatant is eliminated. Next, 280 μL of water, 18 μL of 3M LiClO4 and 900 μL of acetone are added to the pellet. Vortex stirring is performed, centrifuging is performed and the supernatant is eliminated. The pellet is rinsed with 50 μL of 70% ethanol and then centrifuging is carried out for 15 mins at 14,000 rpm (20,800 g) at 4° C. The supernatant is eliminated, and the pellet is dried under vacuum with the rotary evaporator before the pellet is taken up in 20 μL of water (i.e. [in vitro transcripts]theoretical=[…]).
In order to determine the quantity of functionalised in vitro transcripts recovered after these different treatments, 1.2 μl of each end solution are assayed by UV spectrophotometry at 260 nm (Nanodrop 100, Thermo Scientific Waltham, USA). An assay is also carried out at 550 nm in order to learn the Cy3 functionalisation rate of the in vitro transcripts (% of Cy3 molecules per 100 nucleosides). This value is also known under the name DoL (Degree of Labelling) and is calculated with the following equation: DoL (in %)=100×(340×[Cy3])/(1000×[RNA]). […]

**Q.** With `CCN1/C(=C\C=C\C2=[N+](CCCCCC(=O)Nc3ccc4c(c3)c(=O)oc(=O)n4C)c3ccc(S(=O)(=O)[O-])cc3C2(C)C)C(C)(C)c2cc(S(=O)(=O)[O-])ccc21.[K+]` [Cy3 IA Me 13, 1-methyl 5-Cy3-isatoic anhydride] as the molecule, how does the DoL (30 mM compound in the solution) read?
**A.** Its DoL is 0.8%.

**Q.** And the DoL (60 mM compound in the solution)?
**A.** The DoL was 1.7%.

**Q.** And the DoL (90 mM compound in the solution)?
**A.** Its DoL is 2%.

**Q.** And the DoL (120 mM compound in the solution)?
**A.** Its DoL is 2.7%.
